Laboratory results reported in patent US20230407365A1, “DIAGNOSTIC TOOL FOR SCREENING THE IMPACT OF PRODUCT INGREDIENTS FOR UROGENITAL MICROBIOMES THERAPIES” (priority 2022, published 2023).

Tests used:
Streptococcus pneumoniae = conditions: reported; cited from earlier work
Staphylococcus aureus = conditions: reported; cited from earlier work
Candida albicans = experiment: CBD effects on C. albicans, normalized optical density (FIG. 16A); assay type: cell-based; conditions: anaerobically cultured Candida albicans
L. crispatus [1] = experiment: L. crispatus in anaerobic conditions at 37° C., OD 600 nm (FIG. 19); assay type: cell-based
Description: 1910. […] Confirmation as lactobacilli was confirmed by qPCR. The treatment results are measured by OD 600 nm 1715 of one embodiment.

L. gasseri [2] = experiment: L. gasseri in anaerobic conditions at 37° C., OD 600 nm (FIG. 20); assay type: cell-based
Description: 2010. […] Confirmation as lactobacilli was confirmed by qPCR. The treatment results are measured by OD 600 nm 1715 of one embodiment.

E. coli = experiment: Quantitative analysis of actives for cannabinoids, culture growth by OD 600 nm (FIG. 18); assay type: cell-based; conditions: aerobic conditions; compared with No treatment Ctrl
Description: FIGS. 17A, 17B and 18 show the results of quantitative analysis of actives for cannabinoids for Lactobacillus crispatus, Lactobacillus gasseri and E. coli. Each sample is treated with a CBD distillate, THC distillate, and De Man, Rogosa and Sharpe (MRS) agar plates as indicated on chart. Additionally, a CBD isolate of the samples is also treated.
The treatment results are measured by OD 600 nm 1715 of one embodiment.

L. crispatus [3] = experiment: Inhibition results, OD 600 nm (FIG. 21); assay type: cell-based; conditions: MRS broth
Description: (§1) Treatments included Product R 2150, Erythromycin 2152, No trt 2154, and Ctrl 2156. […] A drop in pH was expected and observed. Follow up treatments should include a positive control using a gram-positive antibiotic, e.g erythromycin, vancomycin or tetracycline, to show inhibition of the lactobacilli strains L. gasseri 2130 and L. crispatus 2140. The treatment results are measured by OD 600 nm 1715 of one embodiment.

L. gasseri [4] = experiment: Inhibition results, OD 600 nm (FIG. 21); assay type: cell-based; conditions: MRS broth
Description: as §1

Compound: C=C(C)[C@@H]1CCC(C)=C[C@H]1c1c(O)cc(CCCCC)cc1O [CBD, cannabidiol]
- inhibitory levels (Streptococcus pneumoniae): low micromolar range
- inhibitory levels (Staphylococcus aureus): low micromolar range
- CBD effects on C. albicans (Normalized Optical Density over time) (Candida albicans): positive result

Compound: C=C(C)[C@@H]1CCC(C)=C[C@H]1c1c(O)cc(CCCCC)cc1O [CBD isolate, cannabidiol]
- inhibition of growth (OD 600 nm) (L. crispatus [1]): lack of inhibition
- inhibition of growth (OD 600 nm) (L. gasseri [2]): lack of inhibition
- treatment results measured by OD 600 nm over treatment exposure times (growth inhibition) (E. coli): relatively similar results

Compound: CC[C@H]1OC(=O)[C@H](C)[C@@H](O[C@H]2C[C@@](C)(OC)[C@@H](O)[C@H](C)O2)[C@H](C)[C@@H](O[C@@H]2O[C@H](C)C[C@H](N(C)C)[C@H]2O)[C@](C)(O)C[C@@H](C)C(=O)[C@H](C)[C@@H](O)[C@]1(C)O [Erythromycin]
- inhibition of growth (OD 600 nm) (L. crispatus [3]): no observed inhibition of growth
- inhibition of growth (OD 600 nm) (L. gasseri [4]): no observed inhibition of growth
